29 compounds from patent US5945450A, “Naphthalene derivative” (Teijin Limited, priority 1994, dated 1999) can be followed below.

What all share (assay type): cell-based
For one experiment, the system named is human IgG antibodies. Description: In vitro inhibition of human IgG antibody production (lymphocytes + IL-4 + anti CD40Ab + IL-10, ELISA). Particulars: Lymphocyte, 3 μM. Here is the method:
(§1) According to the method described in J. Immunol., 146:1836-1842, 1991 and J. Immunol., 147:8-13, 1991, the concentrations of IgE and IgG antibodies were measured by the procedures described below.
(§2) Peripheral venous blood was sampled from the healthy person, and submitted to density-gradient centrifugation to isolate lymphocytes. The lymphocytes thus obtained were washed and suspended in a culture medium (RPMI-1640 (provided by Gibco)+10% heat-inactivated FCS (Whittaker)+100 µg/ml streptomycin+100 U/ml penicillin+2mM L-glutamine). The cell suspensions were cultured for 1 week in the presence/absence of the compounds of this invention at the concentrations as described in Tables 3-1 to 3-2 together with human interleukin 4 (IL-4, Genzyme)([…]), anti CD40 antibodies (anti CD40Ab, Biosource, clone B-B20)([…]) and human interleukin 10 (IL-10, Genzyme)([…]). The culture medium was supplied freshly to the cell suspension, and the mixture was further cultured for another week. The supernatant was sampled and the concentrations of IgE and IgG antibodies therein were measured by sandwich ELISA.
(§3) The ELISA was based, for the assay of IgE antibodies, on the use of rabbit anti-human IgE() antibodies (ICN) as the primary antibody and biotin-linked anti-human IgE monoclonal antibodies (G7-26, PharMingen) as the secondary antibody. For the assay of IgG antibodies, anti-human IgG monoclonal antibodies (G18-145, PharMingen) and biotin-linked donkey anti-human IgG antibodies (H+L)(Jackson) were used for the primary and secondary antibodies, respectively. For the assay of both IgE and IgG antibodies, Avidin-Biotin-Horse Radish Peroxidase (ABC kit, Vector Lab) and TMB (3,3',5,5'-tetramethylbenzidine) microwell peroxidase substrate system (Kirkegaard & Perry Laboratories Inc.) were used as the enzyme and the substrate, respectively. The assays were made by the use of conventionally known ELISA.
(§4) The inhibitory effect (%) of a given compound of this invention on the production of the antibody was calculated with respect to the concentration of the same antibody when the compound was not coexistent (refer to Uejima et al., American Academy of Allergy and Immunology, Proceedings of 1995 Annual Meeting, Program No. 818).

A further experiment relates to human IgE antibodies. Description: In vitro inhibition of the production of human IgE antibodies (lymphocytes + IL-4 + anti CD40Ab + IL-10, ELISA). Particulars: Lymphocyte, 3 μM, read-out: Inhibition of antibody production (%) IgE. The method, then: as §1, §2, §3, §4
For orientation: An ELISA detects its analyte on a solid surface through an enzyme-linked reagent.

A further experiment concerns TF (tissue factor). Put plainly: Inhibitory effects on the TF production in LPS-stimulated human peripheral blood monocytes. Particulars: Monocyte, LPS 1 μg/ml, 16 hours. Here is the method: Peripheral venous blood was sampled from the healthy person, and submitted to density-gradient centrifugation so that monocytes might be isolated. The monocytes thus obtained were washed with minimum essential medium (MEM, Gibco) and suspended in a culture medium (RPMI-1640(Gibco)+25 mM HEPES buffer+100 μg/ml streptomycin+100 U/ml penicillin G+2 mM L-glutamine) to give a suspension with a density of 1×10^6 cells/ml. A 0.15 ml of the cell suspension was placed onto each of the wells of a 96-well microplate, to which the compound of this invention as described in Tables 4-1 to 4-2 was added (0.05 ml of the culture medium), and the assembly was placed for 1 hour in a CO2 incubator for cultivation. Then, LPS (lipopolysaccarides, E. coli 0111B4, Difco) 1 μg/ml was added thereto, and the assembly was further cultured for 16 hours. After the supernatant being removed, the residue was washed with physiological saline, 0.1 ml of 16 mM OG (n-octyl-β-D-glucopyranoside) was added thereto, and the assembly was stirred to make TF soluble. A 0.2 ml of physiological saline was added to each residue (final dilution was […]) and this preparation was used for determination of the coagulation stimulating activity (TF-like activity). The test compound had been dissolved in DMSO to give a 0.1 M solution which was diluted with the culture medium prior to use. The final concentration of DMSO was 0.01% or less.
To each well of the microplate, 50 μl of human plasma and 50 μl of the test sample prepared as above for determination of the coagulation stimulating activity, or 50 μl of standard thromboplastin (human thromboplastin, Thromborel S, Behringwerke) were added. The microplate was incubated at 37° C. for 5 minutes, to which was added 25 mM CaCl2 (50 μl/well) containing phosphorous lipids (Platelin, Organon Teknica) at a concentration of […] to initiate coagulation. Coagulation was determined on the basis of absorption at 540 nm, and the measurement lasted 7 to 20 minutes. The data were analyzed with a data analyzing software SOFTMax (Molecular Devices) and the maximum rate time was taken as the coagulation time. The logarithmic values of the coagulation times and standard thromboplastin concentrations are plotted, and a regression parabola was drawn among the dots to give a test curve. From the curve, the inhibitory effect (%) of a given test compound on TF production was calculated. (Refer to J. Imnmunol. Methods, 133:21-29, 1990, and Proc. Natl. Acad. Sci. USA, 89:10370-10374, 1992).

As for `COC(=O)c1ccccc1NC(=O)c1ccc(Oc2ccc3ccccc3c2)cc1` [Compound No. 1101, 2-(4-(2-naphthyloxy)benzamide)benzoic Acid Methyl Ester], the inhibition – broadly, the drop in the measured response relative to a control, in per cent – at 3 µM is -2.8% in the experiment with human IgG antibodies and 30.3% in the experiment on human IgE antibodies.

Turning to `O=C(Nc1ccccc1)c1ccc(Oc2ccc3ccccc3c2)cc1` [Compound No. 1105, N-phenyl-4-(2-naphtyloxy)benzamide], the inhibition at 3 µM was -6.4% in the experiment with human IgG antibodies and 42.4% in the experiment with human IgE antibodies.

For the compound `O=C(Nc1ccccc1O)c1ccc(Oc2ccc3ccccc3c2)cc1` [Compound No. 1106, 2-(4-(2-naphtyloxy)benzamide)phenol], the results for the inhibition at 3 µM in the experiment with human IgG antibodies and in the experiment with human IgE antibodies were -25.3% and 42.6%, respectively.

As to `NS(=O)(=O)c1ccccc1NC(=O)c1ccc(Oc2ccc3ccccc3c2)cc1` [Compound No. 1107, 2-(4-(2-naphtyloxy)benzamide)benzenesulfonamide], the inhibition at 3 µM was -17.2% with human IgG antibodies and 44.9% in the experiment with human IgE antibodies.

Turning to `O=C(Nc1ccccc1-c1nnn[nH]1)c1ccc(Oc2ccc3ccccc3c2)cc1` [Compound No. 1109, 1-(4-(2-naphtyloxy)benzamide)-2-(tetrazol-5-yl)benzene], in the experiment on TF (tissue factor), the inhibition at 1 µM worked out at 74.9%, the inhibition at 3 µM is 99.4% and the inhibition at 10 µM was 99.7%.

For `Nc1cc(C(=O)Nc2ccccc2C(=O)O)ccc1Oc1ccc2ccccc2c1` [Compound No. 1118, 2-(3-amino-4-(2-naphtyloxy)benzamide)benzoic Acid], the inhibition at 3 µM with human IgG antibodies is -12.9%; in the experiment with TF (tissue factor), 86.9%; in the experiment with human IgE antibodies it was 77.2%.

As to `O=C(Nc1ccccc1C(=O)O)c1ccc(Oc2ccc3cc(O)ccc3c2)cc1` [Compound No. 1202, 2-(4-(6-hydroxy-2-naphtyloxy)benzamide)benzoic Acid], the inhibition at 3 µM was -8.7% with human IgG antibodies, 33.4% in the experiment on TF (tissue factor) and 76.6% in the experiment on human IgE antibodies.

With `O=C(Cc1ccc(Oc2ccc3cc(O)ccc3c2)cc1)Nc1ccccc1C(=O)O` [Compound No. 1208, 2-(4-(6-hydroxy-2-naphtyloxy)phenylacetamide)benzoic Acid], the inhibition at 3 µM in the experiment with human IgG antibodies is -8.4%; in the experiment on human IgE antibodies, 86.2%.

As to `N#Cc1ccccc1NC(=O)c1ccc(Sc2ccc3ccccc3c2)cc1` [Compound No. 3103, 2-(4-(2-naphtylthio)benzamide)benzonitrile], the inhibition at 3 µM came out at 3.5% in the experiment on human IgG antibodies, 77.9% in the experiment on TF (tissue factor) and 41.9% in the experiment on human IgE antibodies.

Turning to `O=C(Nc1ccccc1-c1nnn[nH]1)c1ccc(Sc2ccc3ccccc3c2)cc1` [Compound No. 3104, 1-(4-(2-naphtylthio)benzamide)-2-(tetrazol-5-yl)benzene], the inhibition at 3 µM with TF (tissue factor) came out at 96.9%.

`O=C(Nc1ccccc1C(=O)O)c1ccc(Oc2cccc3ccccc23)cc1` [compound 1111]: the inhibition at 3 µM in the experiment with human IgG antibodies was 20%. Moreover, in the experiment with TF (tissue factor), the inhibition at 1 µM was -9%, the inhibition at 3 µM turned out to be 96.2% and the inhibition at 10 µM is 100%. Also, in the experiment on human IgE antibodies, the inhibition at 3 µM amounted to 38%.

On to `O=C(Nc1ccccc1C(=O)O)c1cccc(Oc2ccc3ccccc3c2)c1` [compound 1113], for which, in the experiment on TF (tissue factor), the inhibition at 1 µM was 25.3%, the inhibition at 3 µM is 83.6% and the inhibition at 10 µM stood at 100%.

Take `O=C(Nc1ccccc1C(=O)O)c1ccc(Oc2ccc3ccccc3c2)c([N+](=O)[O-])c1` [compound 1116]: the results for the inhibition at 3 µM in the experiment on human IgG antibodies, in the experiment on TF (tissue factor) and in the experiment on human IgE antibodies were 36.9%, 96.6% and 93%, respectively.

In the case of `O=C(Nc1ccccc1C(=O)O)c1ccc(Oc2ccc3ccccc3c2)c(C(=O)O)c1` [compound 1120], the figures for the inhibition at 3 µM with human IgG antibodies and in the experiment with human IgE antibodies were 13.6% and 19.9%, respectively.

Consider `O=C(Nc1ccccc1C(=O)O)c1ccc(Oc2ccc3ccccc3c2)c(C(=O)Nc2ccccc2C(=O)O)c1` [compound 1122], for which the inhibition at 3 µM in the experiment on human IgG antibodies worked out at 9.7%; in the experiment on human IgE antibodies, 59.9%.

On to `COC(=O)c1ccccc1NC(=O)Cc1ccc(Oc2ccc3ccccc3c2)cc1` [compound 1123], for which the results for the inhibition at 3 µM in the experiment on human IgG antibodies and in the experiment with human IgE antibodies were -0.8% and 21.7%, respectively.

With `O=C(CCc1ccc(Oc2ccc3ccccc3c2)cc1)Nc1ccccc1C(=O)O` [compound 1146], in the experiment on TF (tissue factor), the inhibition at 3 µM was 23.5%.

`O=C(C=Cc1ccc(Oc2ccc3ccccc3c2)cc1)Nc1ccccc1C(=O)O` [compound 1148]: the values for the inhibition at 3 µM with human IgG antibodies, in the experiment with TF (tissue factor) and in the experiment with human IgE antibodies were 10.3%, 92.9% and 25.5%, respectively.

On to `CC(C(=O)Nc1ccccc1C(=O)O)c1ccc(Oc2ccc3ccccc3c2)cc1` (stereo not shown) [compound 1150], for which the inhibition at 3 µM with human IgG antibodies amounted to 3.3%; with human IgE antibodies it was 64.4%.

Regarding `O=C(Nc1ccccc1C(=O)O)c1ccc(Oc2ccc3cc(OCc4ccccc4)ccc3c2)cc1` [compound 1206], the inhibition at 3 µM is 11.5% with human IgG antibodies and 84% with human IgE antibodies.

Turning to `CC(C)(C)Oc1ccc2cc(Oc3ccc(CC(=O)Nc4ccccc4C(=O)O)cc3)ccc2c1` [compound 1210], the inhibition at 3 µM worked out at 59.9% with human IgG antibodies and 92.8% in the experiment with human IgE antibodies.

Consider `O=C(Cc1ccc(Oc2ccc3cc(OC4CCCCC4)ccc3c2)cc1)Nc1ccccc1C(=O)O` [compound 1212], for which the inhibition at 3 µM turned out to be 74.6% in the experiment with human IgG antibodies and 89.1% with human IgE antibodies.

For `C=CCOc1ccc2cc(Oc3ccc(CC(=O)Nc4ccccc4C(=O)O)cc3)ccc2c1` [compound 1218], the inhibition at 3 µM in the experiment on human IgG antibodies worked out at 47.8%; in the experiment on human IgE antibodies, 91.4%.

With `O=C(Cc1ccc(Oc2ccc3cc(OCc4ccccc4)ccc3c2)cc1)Nc1ccccc1C(=O)O` [compound 1224], the inhibition at 3 µM in the experiment on human IgG antibodies amounted to 83.2%; with human IgE antibodies it was 78.6%.

As to `O=C(Cc1ccc(Oc2ccc3cc(OCc4ccc5ccccc5c4)ccc3c2)cc1)Nc1ccccc1C(=O)O` [compound 1228], the figures for the inhibition at 3 µM in the experiment on human IgG antibodies and with human IgE antibodies were 42.4% and 98.9%, respectively.

`O=C(Nc1ccccc1C(=O)O)c1ccc(COc2ccc3ccccc3c2)cc1` [compound 5102]: in the experiment with TF (tissue factor), the inhibition at 1 µM worked out at 19.8%, the inhibition at 3 µM worked out at 74.1% and the inhibition at 10 µM was 99.9%.

In the case of `O=C(Cc1ccc(COc2ccc3ccccc3c2)cc1)Nc1ccccc1C(=O)O` [compound 5104], the results for the inhibition at 3 µM in the experiment on human IgG antibodies and with human IgE antibodies were 1.6% and 51.4%, respectively.

As for `O=C(Nc1ccccc1C(=O)O)c1ccc(CSc2ccc3ccccc3c2)cc1` [compound 6102], in the experiment on TF (tissue factor), the inhibition at 3 µM was 75.8% and the inhibition at 10 µM came out at 100%.

As to `COC(c1ccc(C(=O)Nc2ccccc2C(=O)O)cc1)c1ccc2ccccc2c1` (stereo not shown) [compound 8102], the results for the inhibition at 3 µM with human IgG antibodies and in the experiment with human IgE antibodies were 9.7% and 60%, respectively.
